Values quoted from earlier work as cited in patent publication US20250099408A1, “IMPROVED SURAMIN METHODS AND COMPOSITIONS” (priority 2022, published 2025).

Test system: HIV
Conditions: suramin 1 g IV

Cc1ccc(C(=O)Nc2ccc(S(=O)(=O)O)c3cc(S(=O)(=O)O)cc(S(=O)(=O)O)c23)cc1NC(=O)c1cccc(NC(=O)Nc2cccc(C(=O)Nc3cc(C(=O)Nc4ccc(S(=O)(=O)O)c5cc(S(=O)(=O)O)cc(S(=O)(=O)O)c45)ccc3C)c2)c1 [suramin]
virus in the blood circulation (HIV patients): almost clearing the virus from the blood circulation | clinical improvement of the patients: did not give clinical improvements
